How the values were obtained:
[1] = tested on: Streptomyces venezuelae ATCC 10712; test: Confrontation assay B. velezensis GA1 / S. venezuelae on REM plate, UPLC-MS metabolite profiling of the agar
Experimental: Confrontation assays were performed on square Petri dishes (12 × 12 cm) with 40 mL of REM solid medium at 26°C (REM supplemented with 14 g/L of agar).
S. venezuelae ATCC 10712 was inoculated as stripes (1 × 12 cm) in the middle of the plate with 40 µL of spore suspension (10^7 spores/mL) and spread with a cotton swab. Next, B. velezensis GA1 cells were collected from fresh precultures as described and adjusted to OD600 nm 0.1. Then, 5 µL of B. velezensis GA1 suspension was spotted at 1 cm of the Streptomyces line. Control plates were done following the same procedure without the inoculation of either Bacillus or Streptomyces. Plates were then incubated for 3 days at 26°C in the dark. Pictures of the plates were then captured using a CoolPix camera (NIKKOR ×60 wide optical zoom extra-low dispersion vibration reduction 4.3–258.0 mm 1:33 to 6.5).
The extraction of the metabolites from the agar was performed as follows. For the confrontation experiment, we precisely sampled the area of agar (2 × 1 cm) near the colony of Bacillus or Streptomyces (the confrontation zone is 1 cm wide) with standardized plugs. For the in planta, we sampled the agar area (1 × 1 cm) near the tomato roots. In both cases, the agar samples were transferred to Eppendorf tubes and placed for 24 h at −20°C. Then, the agar was thawed at room temperature and centrifuged for 10 min at 13,000 rpm. The supernatants were then collected and filtered (0.22-µm pore size filters) before UPLC-MS analysis.
All UPLC-MS analyses were performed using an Agilent 1290 Infinity II coupled with a diode array detector and a mass detector (Jet Stream ESI-Q-TOF 6530) in positive mode with the parameters set up as follows: capillary voltage of 3.5 kV, nebulizer pressure of 35 lb/in^2, drying gas of 8 L/min, drying gas temperature of 300°C, flow rate of sheath gas of 11 L/min, sheath gas temperature of 350°C, fragmentor voltage of 175 V, skimmer voltage of 65 V, and octopole radiofrequency of 750 V. Accurate mass spectra were recorded in the m/z range of 300–1,700. For untargeted MS/MS, we used the same MS1 parameters as described. We added MS2 untargeted acquisition mode with the parameters as follows: MS/MS range 50–1,700 m/z; MS/MS scan rate 3 spectra/s; isolation width MS/MS medium (approx. 4 AMU), Decision Engine Native; fixed collision energies of 25 and 40 V for surfactin, 50 V for iturin, and 60 V for fengycin experiments; precursor selection: three for the surfactin experiment, four for the iturin and fengycin experiments, threshold 1,500 (Abs), isotope model common, active exclusion after two spectra and release after 0.5 min, sorting the precursors by charge state then abundance (charge state preference 1). For targeted MS/MS, we used the same MS1 parameters MS/MS range of 50–1,700 m/z or 50–3,200 (when required for Pseudomonas CLPs with mass >1,700 Da), MS/MS scan rate 3 spectra/s, isolation width MS/MS narrow (approx. 1.3 amu), and fixed collision energies 20, 40, and 60V. In all experiments, a C18 Acquity UPLC ethylene bridged hybrid column (2.1 mm × 50 mm × 1.7 µm; Waters Corporation, Milford, MA, USA) was used at a flow rate of 0.6 mL/min and a temperature of 40°C. The injection volume was 20 µL, and the diode array detector scanned a wavelength spectrum between 190 and 600 nm. Unless otherwise mentioned, a gradient of acidified water (0.1% formic acid) (solvent A) and of acidified acetonitrile (0.1% formic acid) (solvent B) was used as mobile phase with a constant flow rate of 0.6 mL/min, starting at 10% B and rising to 100% B in 20 min. Solvent B was kept at 100% for 4 min before going back to the initial ratio. MassHunter Workstation (version 10.0) and ChemStation software were used for data collection and analysis. For untargeted analysis of iturin and fengycin degradation products, we used the same solvent and flow rate, starting at 10% B to 20% in 2 min, then rising to 50% B at 14 min and 100% B at 25 min, followed by 100% B and 5 at 10% B at 6 min.

tobacco cells = settings: cited from earlier work
From the text: Additionally, CLPs are key multifunctional BSMs whose biocontrol-associated activities often involve membrane perturbation and pore formation ([16]). This CLP-membrane interaction is enabled by the peculiar amphiphilic three-dimensional structures of those CLPs ([17], [18]). However, since the degradation alters their structures, it is likely associated with a loss of function. […] Likewise, linearization of su ...

Streptomyces = settings: cited from earlier work
From the text: As soils are carbon-rich and nitrogen-poor environments, exogenous CLP degradation may thus represent a foraging strategy for Streptomyces to access alternative sources of nutriments directly emanating from diverse microbial competitors. We assume that, in this ...

[2] = tested on: Streptomyces venezuelae ATCC 10712; test: In planta co-inoculation on tomato roots, UPLC-MS of rhizosphere extracts; settings: tomato roots on Hoagland agar, 7 days at 22°C, UPLC-MS of agar near the roots, four biological replicates
Experimental: For the in planta studies, tomato seeds (Solanum lycopersicum var. Moneymaker) were sterilized following the protocol described by ([26]). Briefly, tomato seeds were primarily sterilized in 70% ethanol (vol/vol) by gently shaking for 2 min. Further, the ethanol was removed and the seeds were added to 50 mL of the sterilization solution [4.5 mL of bleach containing 9.5% (vol/vol) of active chlorine, 0.01 g of Tween 80, and 45.5 mL of sterile water] and gently shaken for 10 min. Seeds were thereafter washed 10 times with water to eliminate sterilization solution residues. […]
All UPLC-MS analyses were performed using an Agilent 1290 Infinity II coupled with a diode array detector and a mass detector (Jet Stream ESI-Q-TOF 6530) in positive mode with the parameters set up as follows: capillary voltage of 3.5 kV, nebulizer pressure of 35 lb/in^2, drying gas of 8 L/min, drying gas temperature of 300°C, flow rate of sheath gas of 11 L/min, sheath gas temperature of 350°C, fragmentor voltage of 175 V, skimmer voltage of 65 V, and octopole radiofrequency of 750 V. Accurate mass spectra were recorded in the m/z range of 300–1,700. […]

For surfactin, the “abundance of the CLP in the confrontation zone compared with monocultures” value [1] is given as “decrease in the abundance”, the “shorter CLP fragment detected in the confrontation zone but not in Bv monoculture” value [1] is given as “loss of the fatty acid from the linear form” and the “effect of linearization on the potential to stimulate immune-related defense responses” value (tobacco cells) is given as “almost full loss”. The “effect on aerial mycelium formation of Streptomyces” value (Streptomyces) was “inhibitory effect” and the “linear forms in rhizosphere extracts upon co-inoculation of Bv with Sv” value [2] was “high proportion of linear”.
